Reference: patent US20040038861A1, “Methods and compositions for normalizing lipid levels in mammalian tissues” (priority 2001, published 2004)

How the values were obtained:
soleus muscle [1] = experiment: Lipid metabolites (free fatty acid, glycerol, triglyceride; enzymatic analysis) in isolated soleus muscle from normally fed rats; type: cell-based, rat; conditions: soleus, normally fed rats, 100 nM amylin or CGRP-1, 4.4 μM norepinephrine
soleus muscle [2] = experiment: Triglyceride and free fatty acid content (enzymatic) in isolated soleus muscle of rats fed high fat diets; type: cell-based, rat; conditions: diet with 40% added lard, 100 nM amylin or CGRP-1, 4.4 μM norepinephrine, 1 h
Source text: (§1) High-fatted rats. Groups of male Wistar rats (n=21/diet) were ad libitum fed high-fat diets containing standard rat chow to which 40% (w/w) of lard, corn oil or olive oil had been added, from the time of weaning (age=21 d) until sacrifice at 50 d. Triacylglycerol from lard contains predominantly saturated fatty acids; that from corn oil […], see Table 4.
(§2) Soleus muscle tissue isolation and incuhation.Immersion and incubation media was Krebs-Henseleit buffer (KHB) containing 118.5 mM NaCl, 4.75 mM KCl, 1.18 mM MgSO4.7H2O and KH2PO4, 24.8 mM NaHCO3, 2.54 mM CaCl2 and 10 mM d-glucose. The medium was gassed continuously with 95% O2/5% CO2. […] Soleus muscles of both legs were excised keeping the tissue immersed in KHB; muscles were separated into two equal parts and transferred to the incubation flasks. At the completion of incubation the muscles were snap frozen in liquid nitrogen, and then trimmed of connective tissue and all visible fat. The muscle strips were stored at −80° C. until analysis.
(§3) Lipid extraction and chromatographic separation of fatty acids. Total lipids were extracted from muscle strips by a modified version of the method of Bligh and Dyer (Gorski et al., 1988, Mol & Cell Biochem 178:113-118; 1. Bligh et al., 1959, Can J Biochem Physiol 37: 911-917). Muscles were homogenised (Soniprep 150) in 0.4 ml of deionised water. Solvent volumes used herein were varied according to the water content of the muscle (ie muscle weight) as described (Bligh & Dyer, supra). 2 vols of methanol containing 0.005% butylated hydroxy toluene (BHT) and 1 vol chloroform were added to the muscle suspension. Homogenates were vortexed at maximum speed for 2 minutes and centrifuged at 2,500 g for 4 minutes. Supernatants were recovered and pellets re-extracted with 2 vol methanol, 1 vol chloroform and 0.8 vol 0.2 N HCl. Residues were vortexed for 2 min then centrifuged at 3,500 g for 3 min. After centrifugation the combined supernatants were diluted with 2v each of milli Q water and chloroform and the phases separated by centrifugation at 3,500 g for 4 minutes. The lower chloroform phase was recovered, neutralised by dropwise addition of 0.2 N methanolic NH4OH and evaporated down in a stream of N2. The samples were stored at −80° C. until required.
(§4) Aminopropyl phase (250 mg) was packed into 16 ml teflon columns with teflon frits placed at the top and bottom of the bonded phase. Columns were placed in a Vac Elut apparatus and washed twice with 2 ml portions of hexane (Prasad et al., 1988, J Chromato 428: 221-228; Kaluzny et al., 1985, J Lipid Res 26: 135-140). The dry lipid samples were taken up in two 0.150 ml portions of chloroform and applied to the column under atmospheric pressure. After adsorption the neutral lipids were eluted with 4 ml of chloroform-2-propanol (2:1, v/v) and the free fatty acids eluted with 4 ml of 2% acetic acid in diethyl ether. The solvent containing the free fatty acids was dried under a stream of N2.
Determination of tissue free fatty acids and triacylglycerol concentration by enzymatic analyses. Free fatty acids were separated from total lipid, evaporated under a stream of N2 and stored at −80° C. until analysis. Samples were dissolved in 50 μl of warm ethanol (35-40° C.), and 0.625 ml of a Triton X-100 (6% w/v) solution was added once the ethanol reached room temperature. The solution was stirred for 30 min, then made up to 0.825 ml with the Triton solution. Free fatty acids were quantified using a commercial method (Boehringer Mannheim) adapted for micro analyses (Cobas Mira, Roche Diagnostics), with palmitic acid standards. Triacyl glycerol levels were quantified in the total lipid fraction (Pointe Scientific) with a glycerol standard.
Total lipid was extracted and quantitated. Results are shown in FIGS. 18A NEFA and 18B triglyceride.

soleus muscle [3] = experiment: Individual free fatty acids by gas chromatography in soleus muscle of rats fed high fat diets; parameters: species or system rat; conditions: 1 hour, GC
Source text: as §1, §2, §3, §4
Gas-liquid chromatographic analysis. Dry free fatty acid residues were processed for derivatisation of methyl esters by the boron trifluoride-methanol method (Prasad, supra). 1 ml of boron trifluoride in methanol (BF3) was added to each sample, the sample vials were heated at 70° C. for 5 minutes, shaken vigorously, and baked for a further 10 minutes. Once the samples reached room temperature 0.5 ml milli Q water was added, the sample vials shaken, 0.1 ml heptane was added and the sample shaken again. 0.05 ml of the top heptane layer was removed for GLC analysis. A Model HP5890 Plus Series 2 (Hewlett-Packard) gas chromatograph equipped with a DB-225 column was used to separate the methyl esters of the fatty acids and a Model HP 5890 GC with a Model HP 5973 MS (Hewlett-Packard) GC/MS used to confirm the identity of individual free fatty acids. […]

[4] = rats fed diet high in olive oil

Q: How did the “triacylglycerol (triglyceride) content” value (soleus muscle [1]; 60-min, control 1.17±0.15, not significant) turn out when `NC[C@H](O)c1ccc(O)c(O)c1` [Norepinephrine, norepinephrine] was run?
A: The value was 0.81 ± 0.09 µmol/g.

Q: What about the “intramuscular free fatty acid content” value (soleus muscle [1]; 1 h, 23.7 nM insulin, control 78±21) of the same compound?
A: Its value is 295 ± 27 nmol/g.

Q: What about the intramuscular glycerol content (soleus muscle [1]; 1 h, control 0.07±0.007) of the same compound?
A: Its intramuscular glycerol content is 0.04 ± 0.005 nmol/g.

Q: What about the “soleus muscle triglyceride content” value (soleus muscle [2]; control 1.14±0.16) of the same compound?
A: Its value is 0.69 ± 0.09 µmol/g.

Q: What about the “soleus muscle free fatty acid content” value (soleus muscle [2]; control 43±8) of the same compound?
A: Its value is 75 ± 7 nmol/g.

Q: What about the “free fatty acid adrenic C22:4” value (soleus muscle [3]; rats fed diet high in corn oil) of the same compound?
A: Its value is 0.05 ± 0.004 nmol/g wwt.

Q: And the “free fatty acid arachidic C20:0” value (soleus muscle [3]; rats fed diet high in corn oil)?
A: The value was 0.03 ± 0.002 nmol/g wwt.

Q: What about the “free fatty acid arachidonic C20:4” value (soleus muscle [3]; rats fed diet high in corn oil) of the same compound?
A: The value was 0.08 ± 0.009 nmol/g wwt.

Q: What about the “free fatty acid cervonic C22:6” value (soleus muscle [3]; rats fed diet high in corn oil) of the same compound?
A: The value was 0.04 ± 0.003 nmol/g wwt.

Q: What about the “free fatty acid linoleic C18:2” value (soleus muscle [3]; rats fed diet high in corn oil) of the same compound?
A: Its value is 0.14 ± 0.02 nmol/g wwt.

Q: And the “free fatty acid linolenic C18:3” value (soleus muscle [3]; rats fed diet high in corn oil)?
A: Its value is 0.13 ± 0.01 nmol/g wwt.

Q: What about the “free fatty acid margaric C17:0” value (soleus muscle [3]; rats fed diet high in corn oil) of the same compound?
A: The value was 0.04 ± 0.006 nmol/g wwt.

Q: And the “free fatty acid myristic C14:0” value (soleus muscle [3]; rats fed diet high in corn oil)?
A: The value was 0.02 ± 0.002 nmol/g wwt.

Q: And the “free fatty acid oleic C18:1” value (soleus muscle [3]; rats fed diet high in corn oil)?
A: The value was 0.12 ± 0.02 nmol/g wwt.

Q: What about the “free fatty acid palmitic C16:0” value (soleus muscle [3]; rats fed diet high in corn oil) of the same compound?
A: Its value is 0.09 ± 0.01 nmol/g wwt.

Q: And the “free fatty acid palmitoleic (n-7) C16:1” value (soleus muscle [3]; rats fed diet high in corn oil)?
A: The value was 0.007 ± 0.0005 nmol/g wwt.

Q: And the “free fatty acid palmitoleic (n-9) C16:1” value (soleus muscle [3]; rats fed diet high in corn oil)?
A: The value was 0.15 ± 0.01 nmol/g wwt.

Q: And the “free fatty acid pentadecanoic C15:0” value (soleus muscle [3]; rats fed diet high in corn oil)?
A: Its value is 0.04 ± 0.005 nmol/g wwt.

Q: What about the “free fatty acid stearic C18:0” value (soleus muscle [3]; rats fed diet high in corn oil) of the same compound?
A: The value was 0.11 ± 0.008 nmol/g wwt.

Q: What about the “free fatty acid timnodonic C20:5” value (soleus muscle [3]; rats fed diet high in corn oil) of the same compound?
A: Its value is 0.05 ± 0.005 nmol/g wwt.

Q: What about the “free fatty acid vaccenic C18:1” value (soleus muscle [3]; rats fed diet high in corn oil) of the same compound?
A: The value was 0.02 ± 0.001 nmol/g wwt.

Q: And the “free fatty acid adrenic C22:4” value (soleus muscle [3]; rats fed diet high in lard)?
A: The value was 0.02 ± 0.003 nmol/g wwt.

Q: And the “free fatty acid arachidic C20:0” value (soleus muscle [3]; rats fed diet high in lard)?
A: The value was 0.03 ± 0.004 nmol/g wwt.

Q: What about the “free fatty acid arachidonic C20:4” value (soleus muscle [3]; rats fed diet high in lard) of the same compound?
A: Its value is 0.012 ± 0.003 nmol/g wwt.

Q: And the “free fatty acid cervonic C22:6” value (soleus muscle [3]; rats fed diet high in lard)?
A: Its value is 0.01 ± 0.001 nmol/g wwt.

Q: What about the “free fatty acid linoleic C18:2” value (soleus muscle [3]; rats fed diet high in lard) of the same compound?
A: Its value is 0.09 ± 0.003 nmol/g wwt.

Q: And the “free fatty acid margaric C17:0” value (soleus muscle [3]; rats fed diet high in lard)?
A: The value was 0.08 ± 0.008 nmol/g wwt.

Q: What about the “free fatty acid myristic C14:0” value (soleus muscle [3]; rats fed diet high in lard) of the same compound?
A: Its value is 0.04 ± 0.007 nmol/g wwt.

Q: What about the “free fatty acid oleic C18:1” value (soleus muscle [3]; rats fed diet high in lard) of the same compound?
A: The value was 0.21 ± 0.01 nmol/g wwt.

Q: And the “free fatty acid palmitic C16:0” value (soleus muscle [3]; rats fed diet high in lard)?
A: Its value is 0.23 ± 0.02 nmol/g wwt.

Q: What about the “free fatty acid palmitoleic (n-7) C16:1” value (soleus muscle [3]; rats fed diet high in lard) of the same compound?
A: The value was 0.02 ± 0.0008 nmol/g wwt.

Q: What about the “free fatty acid palmitoleic (n-9) C16:1” value (soleus muscle [3]; rats fed diet high in lard) of the same compound?
A: Its value is 0.01 ± 0.001 nmol/g wwt.

Q: And the “free fatty acid pentadecanoic C15:0” value (soleus muscle [3]; rats fed diet high in lard)?
A: Its value is 0.13 ± 0.02 nmol/g wwt.

Q: What about the “free fatty acid stearic C18:0” value (soleus muscle [3]; rats fed diet high in lard) of the same compound?
A: Its value is 0.22 ± 0.01 nmol/g wwt.

Q: And the “free fatty acid timnodonic C20:5” value (soleus muscle [3]; rats fed diet high in lard)?
A: Its value is 0.02 ± 0.004 nmol/g wwt.

Q: And the “free fatty acid vaccenic C18:1” value (soleus muscle [3]; rats fed diet high in lard)?
A: The value was 0.07 ± 0.003 nmol/g wwt.

Q: And the “free fatty acid adrenic C22:4” value (soleus muscle [3]; [4])?
A: Its value is 0.02 ± 0.0007 nmol/g wwt.

Q: What about the “free fatty acid arachidic C20:0” value (soleus muscle [3]; [4]) of the same compound?
A: The value was 0.009 ± 0.0004 nmol/g wwt.

Q: And the “free fatty acid arachidonic C20:4” value (soleus muscle [3]; [4])?
A: The value was 0.03 ± 0.0008 nmol/g wwt.

Q: And the “free fatty acid cervonic C22:6” value (soleus muscle [3]; [4])?
A: The value was 0.12 ± 0.03 nmol/g wwt.

Q: What about the “free fatty acid linoleic C18:2” value (soleus muscle [3]; [4]) of the same compound?
A: Its value is 0.04 ± 0.009 nmol/g wwt.

Q: What about the “free fatty acid linolenic C18:3” value (soleus muscle [3]; [4]) of the same compound?
A: Its value is 0.04 ± 0.01 nmol/g wwt.

Q: What about the “free fatty acid margaric C17:0” value (soleus muscle [3]; [4]) of the same compound?
A: Its value is 0.01 ± 0.001 nmol/g wwt.

Q: And the “free fatty acid myristic C14:0” value (soleus muscle [3]; [4])?
A: The value was 0.005 ± 0.0002 nmol/g wwt.

Q: And the “free fatty acid oleic C18:1” value (soleus muscle [3]; [4])?
A: Its value is 0.28 ± 0.03 nmol/g wwt.

Q: What about the “free fatty acid palmitic C16:0” value (soleus muscle [3]; [4]) of the same compound?
A: The value was 0.19 ± 0.002 nmol/g wwt.

Q: What about the “free fatty acid palmitoleic (n-7) C16:1” value (soleus muscle [3]; [4]) of the same compound?
A: The value was 0.03 ± 0.009 nmol/g wwt.

Q: What about the “free fatty acid palmitoleic (n-9) C16:1” value (soleus muscle [3]; [4]) of the same compound?
A: The value was 0.23 ± 0.01 nmol/g wwt.

Q: What about the “free fatty acid pentadecanoic C15:0” value (soleus muscle [3]; [4]) of the same compound?
A: Its value is 0.01 ± 0.0004 nmol/g wwt.

Q: And the “free fatty acid stearic C18:0” value (soleus muscle [3]; [4])?
A: Its value is 0.16 ± 0.006 nmol/g wwt.

Q: What about the “free fatty acid timnodonic C20:5” value (soleus muscle [3]; [4]) of the same compound?
A: Its value is 0.04 ± 0.004 nmol/g wwt.

Q: And the “free fatty acid vaccenic C18:1” value (soleus muscle [3]; [4])?
A: Its value is 0.2 ± 0.003 nmol/g wwt.
